In patent US11931424B2, “Combination MCL-1 inhibitors with anti-body drug conjugates” (Gilead Sciences, Inc., priority 2021, dated 2024):

Test system: panel of breast cancer cell lines
Experiment: Compound A with targeted agents and chemotherapies, 72-hour in vitro proliferation assays
Type: cell-based
[1] = BT-20 cell line, compound A × partner, 72-hour proliferation
[2] = CAL-51 cell line, compound A × partner, 72-hour proliferation
[3] = CAL-85-1 cell line, compound A × partner, 72-hour proliferation
[4] = CAL-120 cell line, compound A × partner, 72-hour proliferation
[5] = CAL-148 cell line, compound A × partner, 72-hour proliferation
[6] = CAMA-1 cell line, compound A × partner, 72-hour proliferation
[7] = DU-4475 cell line, compound A × partner, 72-hour proliferation
[8] = EVSA-T cell line, compound A × partner, 72-hour proliferation
[9] = HCC38, compound A × partner, 72-hour proliferation
[10] = HCC70, compound A × partner, 72-hour proliferation
[11] = HCC1143 cell line, compound A × partner, 72-hour proliferation
[12] = HCC1569, compound A × partner, 72-hour proliferation
[13] = HCC1806, compound A × partner, 72-hour proliferation
[14] = HCC1937, compound A × partner, 72-hour proliferation
[15] = HCC1954, compound A × partner, 72-hour proliferation
[16] = HCC2218, compound A × partner, 72-hour proliferation
[17] = HDQ-P1, compound A × partner, 72-hour proliferation
[18] = HMC-1-8, compound A × partner, 72-hour proliferation
[19] = JIMT-1, compound A × partner, 72-hour proliferation

CC1(C)CCC(CN2CCN(c3ccc(C(=O)NS(=O)(=O)c4ccc(NCC5CCOCC5)c([N+](=O)[O-])c4)c(Oc4cnc5[nH]ccc5c4)c3)CC2)=C(c2ccc(Cl)cc2)C1 [ABT-199]
Best CI (72 h): 1.23
Bliss Volume (72 h): −1.15
HSA volume (72 h): −2.69
Loewe Volume (72 h): −0.11
Synergy Score (72 h): 3.31
Best CI [1]: 0.62
Bliss Volume [1]: 6.83
HSA volume [1]: 5.47
Loewe Volume [1]: 5.94
Synergy Score [1]: 13.39
Best CI [2]: 0.58
Bliss Volume [2]: 0.44
HSA volume [2]: −2.62
Loewe Volume [2]: 0.83
Synergy Score [2]: 0.56
Best CI [3]: 0.83
Bliss Volume [3]: −1.49
HSA volume [3]: −2.11
Loewe Volume [3]: −1.27
Synergy Score [3]: 1.08
Best CI [4]: 0.85
Bliss Volume [4]: 3.85
HSA volume [4]: −1.21
Loewe Volume [4]: −0.16
Synergy Score [4]: 0.62
Best CI [5]: 0.47
Bliss Volume [5]: 3.32
HSA volume [5]: −0.66
Loewe Volume [5]: 3.11
Synergy Score [5]: 2.74
Best CI [6]: 0.38
Bliss Volume [6]: 8.30
HSA volume [6]: 4.83
Loewe Volume [6]: 8.10
Best CI [7]: 1.15
Bliss Volume [7]: 10.43
HSA volume [7]: 8.46
Loewe Volume [7]: 10.37
Synergy Score [7]: 10.64
Best CI [8]: 1.07
Bliss Volume [8]: 1.29
HSA volume [8]: −0.86
Loewe Volume [8]: 0.99
Synergy Score [8]: 4.67
Best CI [9]: 0.77
Bliss Volume [9]: −3.14
HSA volume [9]: −0.71
Loewe Volume [9]: 0.50
Synergy Score [9]: 5.65
Best CI [10]: 0.43
Bliss Volume [10]: 15.68
HSA volume [10]: 14.46
Loewe Volume [10]: 15.44
Synergy Score [10]: 28.95
Best CI [11]: 0.82
Bliss Volume [11]: 2.43
HSA volume [11]: −2.65
Loewe Volume [11]: −1.50
Synergy Score [11]: 3.01
Best CI [12]: 0.51
Bliss Volume [12]: 15.86
HSA volume [12]: 14.50
Loewe Volume [12]: 16.04
Synergy Score [12]: 14.35
Best CI [13]: 0.83
Bliss Volume [13]: 3.80
HSA volume [13]: 4.70
Loewe Volume [13]: 5.23
Synergy Score [13]: 6.31
Best CI [14]: 0.22
Bliss Volume [14]: 8.42
HSA volume [14]: 2.68
Loewe Volume [14]: 4.59
Synergy Score [14]: 1.43
Best CI [15]: 0.60
Bliss Volume [15]: 12.55
HSA volume [15]: 10.72
Loewe Volume [15]: 12.18
Synergy Score [15]: 17.16
Best CI [16]: 0.43
Bliss Volume [16]: 7.82
HSA volume [16]: 8.19
Loewe Volume [16]: 7.59
Synergy Score [16]: 15.06
Best CI [17]: 0.04
Bliss Volume [17]: 1.77
HSA volume [17]: 0.38
Loewe Volume [17]: 1.74
Synergy Score [17]: 0.96
Best CI [18]: 0.90
Bliss Volume [18]: 6.70
HSA volume [18]: 5.15
Loewe Volume [18]: 6.08
Synergy Score [18]: 9.51
Best CI [19]: 0.14
Bliss Volume [19]: −1.41
HSA volume [19]: −2.60
Loewe Volume [19]: −1.93
Synergy Score [19]: 0.53
Synergy Score (MCF7 cells, Compound A × partner agent, 72-hour proliferation): 1.43
